Measurements reported in patent publication US6673555B1, “Methods of using SCAP antagonists” (SmithKline Beecham Corporation, priority 1999, dated 2004).

How the values were obtained:
[1] = tested on: golden Syrian hamster previously fed with a cholesterol rich diet; assay: Lipoprotein and lipid in sera of cholesterol-fed hamsters (ultracentrifugation, enzymatic assays, SDS-PAGE); format: in vivo; details: for apoB100: VLDL and LDL fraction; for reduction of LDL-cholesterol / reduction of triglycerides: Table 1
Protocol: (§1) The in vivo activity of SCAP antagonist was determined in the golden Syrian hamster previously fed with a cholesterol rich diet. Male Syrian golden hamsters (Janvier, France) were kept on a 12 h light-dark cycle. Animals (7 weeks age, 150 g) were fed for 2 weeks with a high cholesterol diet containing 0.2% cholesterol plus 10% coconut oil. Animals (n=5 per group) were then treated orally with vehicle, (0.5% methylcellulose, 5% Tween 80) or Example 1 at 1, 5 or 20 mg/kg in the vehicle, once a day for 3 days.
4h after the last treatment, animals were anesthetized, blood was collected and serum was prepared by centrifugation. Total cholesterol was determined using a enzymatic assay kit (Biomerieux, France). Lipoproteins were separated by ultracentrifugation using a single KBr concentration (density 1.063). Cholesterol and triglycerides associated with the upper phase (corresponding to VLDL +LDL lipoproteins) and cholesterol associated with the lower phase (corresponding to the HDL fraction) were determined using the enzymatic assays kits. Apolipoprotein B100 associated with VLDL and LDL lipoprotein fraction were analysed by SDS-PAGE and Coomassie blue staining. Lipoproteins were also separated by high-performance gel filtration chromatography with on-line colorimetric determination of cholesterol. Lipoprotein separation was performed on a single superose 6HR column (Pharmacia) with an elution buffer consisting of 10 mM tris, 1 mM EDTA and 150 mM NaCl adjusted at pH 7.4. Cholesterol was measured on line using the RTU enzymatic assay (Biomerieux). The column was calibrated using human lipoproteins and the various peaks in cholesterol profiles are designated VLDL, LDL and HDL for simplicity.
Cholesterol-fed animals were treated for 3 days with Example 1 at 1 and 20 mg/kg. […] In another experiment, lipoproteins were separated by gel filtration and cholesterol content was quantified on-line. As shown in FIG. 7 Example 1 at […] strongly reduces atherogenic particles: 79% reduction of VLDL cholesterol and 60% reduction of LDL-cholesterol.

[2] = tested on: hamster LDL-receptor mRNA; assay: LDL-receptor mRNA by real-time PCR in livers of cholesterol-fed hamsters; format: in vivo, Syrian golden hamster; details: 5 mg/kg oral once a day for 3 days, versus vehicle, FIG. 6
Protocol: as §1
4 hours after the last administration, animals were sacrificed and livers were immediately dropped into liquid nitrogen. Total RNA was extracted using RNAqous kit (Ambion) according to manufacturer instruction. […] The expression of the hamster LDL-receptor was determined using the following primers: SEQ ID NO: 12 […] and SEQ ID NO: 13 […]. […] Each sample was quantified in duplicates and the cycle threshold (Ct) were calculated. For each animal the difference between Ct values for the LDL-receptor and Ribosomal RNA were calculated. The quantity of LDL-receptor mRNA relative to Ribosomal RNA reference was calculated as 2^−ΔΔCt and expressed in arbitrary units.
Cholesterol-fed hamsters were treated with Example 1 (5 mg/kg) or vehicle for 3 days. LDL-receptor mRNA in the liver was quantified by real-time PCR using Ribosomal 18S RNA as internal reference.

[3] = tested on: HepG2 cells; assay: Uptake of Dil-LDL by HepG2 cells; format: cell-based; details: 0.5 μM, 24 hours, Dil-LDL 6 μg/ml for last 4 hours, FIG. 5
Protocol: To determine if activation of LDL-receptor promoter also translated into an increase in functional LDL receptors, an LDL uptake assay was set up. HepG2 cells seeded at 8 10^4 cells per 8 well Biocoat slides (Beckton Dickinson) were treated with SCAP antagonist or 25OH-cholesterol for 20h and then incubated with 6 μg/ml of fluorescent Dil-LDL for 4 hours. The amount of fluorescent dye that accumulated in the lysosomes was quantified by fluorescence microscopy using Axioplan-2 Zeiss microscope equipped with DXC950P video camera (Sony) and red fluorescence filters.
HepG2 cells were treated for 24 hours in the presence of 0.5 μM Example 1 or 10 μM 25OH-cholesterol. Dil-LDL (6 μg/ml) were added 4 hours before the end of the incubation. Cells were washed and observed by fluorescence microscopy using rhodamine filters and video camera with fixed settings.

[4] = 1 mg/kg oral once a day for 3 days
[5] = 1 mg/kg oral once a day for 3 days, serum 4h after last treatment
[6] = 20 mg/kg oral once a day for 3 days
[7] = 20 mg/kg oral once a day for 3 days, serum 4h after last treatment

With `CCOc1cc(CC)ccc1C1CCN(CCCCNC(=O)c2ccc(NC(=O)c3ccc(Cl)cc3)cc2)CC1` [Example 1, 4-(4-Chloro-benzoylamino)-N-{4-[4-(2-ethoxy-4-ethyl-phenyl)-piperidin-1-yl]-butyl}-benzamide] the “CHOLESTEROL HDL chol, % of control” value [1, 4] was 123%, the “CHOLESTEROL LCLchol, % of control” value [1, 4] was 50% and the “CHOLESTEROL TOTAL, % of control” value [1, 4] was 79%. For the same compound, the “Triglycerides TOTAL, % of control” value [1, 4] was 37% (p < 0.001), the “apoB100, % of control” value [1, 4] was 62% (p < 0.005) and the apoB100 [1, 4] was 3.1 ± 0.4 S.U. The “CHOLESTEROL HDL chol” value [1, 5] was 1.5 ± 0.1 g/L, the “CHOLESTEROL LCLchol” value [1, 5] was 0.95 ± 0.2 g/L and the “CHOLESTEROL TOTAL” value [1, 5] was 3.1 ± 0.3 g/L. The “Triglycerides TOTAL” value [1, 5] was 1.3 ± 0.2 g/L, the “reduction of LDL-cholesterol” value ([1]; 1 mg/kg, 3 days) was 50% and the reduction of triglycerides ([1]; 1 mg/kg, 3 days) was 63%. For the same compound, the “CHOLESTEROL HDL chol, % of control” value [1, 6] was 113% NS, the “CHOLESTEROL LCLchol, % of control” value [1, 6] was 17% and the “CHOLESTEROL TOTAL, % of control” value [1, 6] was 55%. For the same compound, the “Triglycerides TOTAL, % of control” value [1, 6] was 24% (p < 0.001), the “apoB100, % of control” value [1, 6] was 25% (p < 0.005) and the apoB100 [1, 6] was 1.2 ± 0.2 S.U. The “CHOLESTEROL LCLchol” value [1, 7] was 0.3 ± 0.1 g/L, the “CHOLESTEROL TOTAL” value [1, 7] was 2.1 ± 0.3 g/L and the “Triglycerides TOTAL” value [1, 7] was 0.8 ± 0.02 g/L. For the same compound, the “reduction of LDL-cholesterol” value ([1]; 20 mg/kg, 3 days) was 83%, the reduction of triglycerides ([1]; 20 mg/kg, 3 days) was 76% and the “effect on Apolipoprotein B100” value ([1]; 1 and 20 mg/kg, 3 days) was “reduced to the same extent”. For the same compound, the “effect on HDL-cholesterol” value ([1]; 1 and 20 mg/kg, 3 days) was “unaffected”, the “LDL-receptor mRNA in the liver” value [2] was “increased mRNA for LDL-receptor” and the “LDL uptake (Dil-LDL fluorescence)” value [3] was “markedly increased the LDL uptake”.
